Results reported in patent publication US20080045582A1, “ENA-78 Gene Polymorphisms and Protein Concentrations as Diagnostic and Prognostic Tools” (priority 2006, published 2008).

Tests used:
IL-6 = IL-6 production by non-stimulated human umbilical vein endothelial cells, multiplex protein measurement; assay type: cell-based; settings: atorvastatin plus mevalonate 250 μM
Method: Human umbilical vein endothelial cells were obtained (Clonetics Cell Systems; Cambrex Bio Science Walkersville, Inc., Walkersville, Md.). Approximately 5×10^5 viable cells were seeded in endothelial cell growth-supplemented basal medium (EGM-2-endothelial cell medium-2; Cambrex Bio Science Walkersville, Inc.) and maintained at 37° C. under a 5% carbon dioxide atmosphere per manufacturer's protocol. The culture medium was changed 24 hours after seeding and every 48 hours thereafter until confluence. Cells were then treated with trypsin, seeded in a 48-well culture dish, and incubated under the conditions previously described. Cells used in this Example were from the third passage. […]
The culture-conditioned media protein content of epithelial neutrophil-activating peptide-78 (ENA-78), interleukin-8, (IL-8), monocyte chemotactic protein-1 (MCP-1), interleukin-6 (IL-6), interleukin-10 (IL-10), fibroblast growth factor (FGF), and granulocyte colony-stimulating factor (G-CSF) were measured by means of flow-based immunofluorescence multiplex detection (Fluorokine MAP Human Cytokine Panel; R&D Systems Inc., Minneapolis, Minn.) with the Luminex 100 IS platform (Luminex Corp., Austin, Tex.). […]

IL-8 = IL-8 production by non-stimulated human umbilical vein endothelial cells, multiplex protein measurement; assay type: cell-based
Method: (§1) Human umbilical vein endothelial cells were obtained (Clonetics Cell Systems; Cambrex Bio Science Walkersville, Inc., Walkersville, Md.). Approximately 5×10^5 viable cells were seeded in endothelial cell growth-supplemented basal medium (EGM-2-endothelial cell medium-2; Cambrex Bio Science Walkersville, Inc.) and maintained at 37° C. under a 5% carbon dioxide atmosphere per manufacturer's protocol. The culture medium was changed 24 hours after seeding and every 48 hours thereafter until confluence. Cells were then treated with trypsin, seeded in a 48-well culture dish, and incubated under the conditions previously described. Cells used in this Example were from the third passage.
(§2) After cells reached 70-80% confluence in the culture dish, they were allowed to become quiescent in unsupplemented, serum-free medium for 24 hours before treatment and then placed in medium containing 2% fetal bovine serum. Atorvastatin (LKT Laboratories Inc., St. Paul, Minn.) was dissolved in dimethylsulfoxide (Sigma-Aldrich, St. Louis, Mo.). Cells were treated for 24 hours with atorvastatin 1-50 μM alone or with atorvastatin plus mevalonate 250 μM (Sigma-Aldrich). Controls were cells cultured without atorvastatin or atorvastatinmevalonate. […] All experiments were performed in duplicate.
(§3) After treatment, culture-conditioned media were collected, divided into aliquots, and stored at −80° C. for no longer than 7 days until multiplex measurement of chemokines, cytokines, and angiogenic factors was performed.
(§4) The culture-conditioned media protein content of epithelial neutrophil-activating peptide-78 (ENA-78), interleukin-8, (IL-8), monocyte chemotactic protein-1 (MCP-1), interleukin-6 (IL-6), interleukin-10 (IL-10), fibroblast growth factor (FGF), and granulocyte colony-stimulating factor (G-CSF) were measured by means of flow-based immunofluorescence multiplex detection (Fluorokine MAP Human Cytokine Panel; R&D Systems Inc., Minneapolis, Minn.) with the Luminex 100 IS platform (Luminex Corp., Austin, Tex.). Concentrations for each sample were normalized against milligrams of total protein by using a standard bicinchoninic acid protein assay (Pierce Biotechnology, Inc., Rockford, Ill.). Samples were assayed in duplicate.
(§5) Standard curves of best fit for each analyte were generated by plotting the median fluorescence intensities of the analyte standards against their known concentrations by using Beadview multiplex data analysis software version 1 (Upstate, Charlottesville, Va.).
Differences in biomolecular concentrations were compared by treatment group by applying one-way analysis of variance and a post-hoc Tukey's test as appropriate. The Jonckheere Terpstra test was performed to assess the trend for differences in biomolecular concentrations across concentrations of atorvastatin. A p value below 0.05 was considered to indicate a statistically significant difference. Statistical analyses were performed with SPSS software, version 11.5 (SPSS Inc., Chicago, Ill.).

ENA-78 [1] = test: IL-1beta-stimulated ENA-78 production from HUVECs, cytometric immunofluorescence; assay type: cell-based, human; settings: IL-1beta and AT 10 uM; mevalonate 250 μM, FPP 5 μM, GGPP 5 μM, FIG. 16
Method: Human umbilical vein endothelial cells (HUVECs) (Clonetics Cell Systems; Cambrex Bio Science Walkersville, Inc., Walkersville, USA) were cultured as previously described. Briefly, HUVECs between passes three and four were seeded at a density of 2.5×10^4 cells per cm^2 and cultured to 80% confluence with endothelial cell growth-supplemented medium (EGM-2-endothelial cell medium-2; Cambrex Bio Science Walkersville, Inc.). Once confluent, media was changed to serum free endothelial basal media (EBM-2-endothelial cell medium-2; Cambrex Bio Science Walkersville, Inc.) for 24 hours prior to treatment, in which EBM-2 media supplemented to a 2% FBS concentration was used. Treatments consisted of atorvastatin calcium (AT; LKT Laboratories Inc., St. […] All were dissolved in molecular grade water. All final DMSO concentrations were less then 0.1%. […] In experiments investigating the impact of AT on IL-1beta-stimulated ENA-78 production, HUVECs were pre-treated with AT followed by IL-1beta stimulation two hours later. […] In a separate set of experiments, cells were cultured with IL-1beta and AT in the presence or absence of mevalonate, FPP, and GGPP to determine whether AT inhibition of ENA-78 production was dependent on HMG-CoA reductase inhibition and subsequent downstream pathways. Cell culture supernates for all experiments were stored at -20° C. until analysis, which was performed within seven days. ENA-78 concentrations were measured and normalized to total protein content in cell culture supernates using cytometric immunofluorescence as previously described. Ribonucleic acid (RNA) was isolated using a commercial kit (RNeasy mini kit, Qiagen Inc., Valencia, USA). Complementary deoxyribonucleic acid (cDNA) conversion was performed by high capacity cDNA reverse transcription (Applied Biosystems, Foster City, USA) per protocol using roughly 2 μg of total RNA. RNA quality was assessed by absorbance (Nanodrop, Nanodrop Technologies, Wilmington, USA). Real-time reverse-transcription PCR (RT-PCR) was done using primer and probe sets for CXCL5 normalized to a housekeeping gene, glyceraldehyde-3-phosphate dehydrogenase (GAPDH; Taqman Gene Expression Assays, Applied Biosystems Inc.). […] PCR for both CXCL5 and GAPDH was performed at the same time using the following conditions: 95° C. for 2 minutes; 35 cycles of 95° C. for 30 seconds, 59° C. for 30 seconds, and 72° C. for 30 seconds; followed by 7 minutes of elongation at 72° C. Statistical differences in normalized protein concentrations and gene expression levels were determined by one way ANOVA and post-hoc Tukey analysis. […] An independent t-test was used to compare treatment differences at the same time points in the dose range analysis. […] Statistical analyses were performed with SPSS software, version 11.5 (SPSS Inc., Chicago, USA).

MCP-1 = MCP-1 production by non-stimulated human umbilical vein endothelial cells, multiplex protein measurement; assay type: cell-based; settings: highest concentration of atorvastatin plus mevalonate 250 μM
Method: as §1, §2, §3, §4, §5
(§6) Differences in biomolecular concentrations were compared by treatment group by applying one-way analysis of variance and a post-hoc Tukey's test as appropriate. The Jonckheere Terpstra test was performed to assess the trend for differences in biomolecular concentrations across concentrations of atorvastatin. […]

ENA-78 [2] = test: ENA-78 production by non-stimulated human umbilical vein endothelial cells, multiplex protein measurement; assay type: cell-based
Method: as §1, §2, §3, §4, §5, §6

[3] = highest concentration of atorvastatin

Substance	effect of mevalonate on atorvastatin effect on IL-6 (IL-6)	reversal of atorvastatin effects on IL-8 by mevalonate (IL-8; [3])	effect of addition of mevalonate on atorvastatin effect on IL-8 (IL-8; mevalonate 250 μM, all atorvastatin groups)	effect of co-treatment on the effect of AT on IL-1beta-stimulated ENA-78 production (ENA-78 [1])	effect of mevalonate cotreatment on atorvastatin effect on MCP-1 (MCP-1)	effect of mevalonate cotreatment on atorvastatin effect on ENA-78 production (ENA-78 [2]; atorvastatin plus mevalonate 250 μM, 24 hours)	reversal of atorvastatin effects on ENA-78 by mevalonate (ENA-78 [2]; [3])
mevalonate	eliminated	potentially incomplete reversal	reversed	partially reversed	reversed	reversed	potentially incomplete reversal
geranylgeranyl pyrophosphate [GGPP]	–	–	–	partially reversed	–	–	–
farnesyl pyrophosphate [FPP]	–	–	–	partially reversed	–	–	–
